Laboratory results as given in patent US7928264B2, “Aminoalcohol derivatives” (Astellas Pharma Inc., priority 2004, dated 2011).

Tested on: increase in intravesical pressure induced by carbachol in anesthetized dog
Assay: Effect on the increase in intravesical pressure induced by carbachol in anesthetized dog
Format: in vivo
Conditions: 0.032 mg/kg, administered intradermally 30 minutes before carbachol (1.8 μg/kg); female Beagle dogs under halothane anesthesia
Method: Effect on the increase in intravesical pressure induced by carbachol in anesthetized dog
Female Beagle dogs weighing 8.0-15.0 kg were fasted for 24 hours and maintained under halothane anesthesia. A 12F Foley catheter was lubricated with water soluble jelly, inserted into the urethral orifice, and advanced approximately 10 cm until the balloon tip was placed well inside the bladder. The balloon was then inflated with 5 ml of room air and catheter slowly withdrawn just part the first resistance that was felt at the bladder neck. Urine was completely drained out through the catheter, and 30 ml of biological saline was infused. The catheter was connected to pressure transducer, and intravesical pressure (IVP) was continuously recorded. The test compound was administered intradermally at 30 minutes before the administration of carbachol (1.8 μg/kg). Percent inhibition of IVP increase by test compound was calculated by dividing IVPa (IVP increase induced by carbachol after test compound administration) by IVPb (IVP increase induced by carbachol just before test compound administration).

Cl.O=C(NS(=O)(=O)CCO)c1ccc(-c2ccc(CCNC[C@H](O)c3ccccc3)cc2)cc1OC1CCCCC1 [Test Compound (1), 3-(Cyclohexyloxy)-N-[(2-hydroxyethyl)sulfonyl]-4′-[2-[[(2R)-2-hydroxy-2-phenylethyl]amino]ethyl]-4-biphenylcarboxamide hydrochloride]
Percent inhibition of IVP increase: 78%
